For this assay, the system named is carrageenan-induced paw edemas of test rats. Briefly: carrageenan-induced paw edema (anti-inflammatory activity). Format: in vivo, Male, Sprague-Dawley rats. Particulars: 50 mg/kg p.o.; carrageenan injected 2 hours after dosing, paw volume measured 3 hours later; control group paw volume as 100% edema. The protocol:
These properties were determined by carrageenan-induced paw edemas of test rats. Male, Sprague-Dawley rats (Blue Spruce Farm) were ordered at 124-140 g, housed for one week, and allowed food and water ad libitum. At the time of the experiments, only rats weighing 160-200 g were used.
All compounds were dissolved or suspended in a 0.5% water solution of Methocel and orally administered to groups of six rats each. Control rats received Methocel only. Two hours later, paw edema was induced by subcutaneous injection into the plantar surface of the right hind paw of 0.1 ml of a 1.0% homogenized suspension of carrageenan.
Immediately, the volume of the paw was measured by immersing it in mercury to above the lateral mateolus. The mercury in a glass cylinder 22 mm in diameter and 60 mm deep was connected at the bottom of the cylinder by a column of water to a Statham transducer (model P23BB), range 0-5 cm of mercury pressure. The volume was recorded electronically on a Beckman recorder, R511. Three hours later, the inflamed paw volume was measured again, and the change in volume was recorded for each group. The percent inhibition of edema was calculated using the control group paw volume as 100% edema, i.e.,
For orientation: Carrageenan injected into the paw causes an acute inflammation.

Counter-ions that a name gives are not always drawn.

From US4501755A, “Isoflavones useful as anti-inflammatory agents” (Pennwalt Corporation, priority 1982, dated 1985) come the findings set out here.

In the case of `CC(C)NCC(O)COc1ccc2c(=O)c(-c3ccccc3)coc2c1` (stereo not drawn) [Example 1, 7-(2-hydroxy-3-isopropylaminopropoxy)-3-phenylchromone hydrochloride], the “% Inhibition of Edema” value is reported as 45%.

On to `CC(C)NCC(O)COc1ccc2c(=O)c(-c3ccccc3)c(C(F)(F)F)oc2c1` (stereo not drawn) [Example 4, 7-(2-hydroxy-3-isopropylaminopropoxy)-2-trifluoromethylisoflavone hydrochloride], for which the “% Inhibition of Edema” value was 31%.

On to `CC(C)NCC(O)COc1ccc2c(=O)c(-c3ccccc3)c(C(C)C)oc2c1` (stereo not drawn) [Example 5, 7-(2-hydroxy-3-isopropylaminopropoxy)-2-isopropylisoflavone maleate], for which the “% Inhibition of Edema” value was 29%.
